Assay results reported in patent US20120172350A1, “HISTAMINE H3 INVERSE AGONISTS AND ANTAGONISTS AND METHODS OF USE THEREOF” (SUNOVION PHARMACEUTICALS INC., priority 2009, published 2012).

Test system: Sprague-Dawley rats
Assay: Rat EEG assay (wake, REM, non-REM states)
Assay type: in vivo
Details: for number of wake and non-REM sleep bouts / wake bout duration: hourly bins, EEG; for wake promotion: male Sprague-Dawley rats, dosed in middle of inactive period, first 6 hours post-dosing; for time spent in REM sleep / time spent in non-REM sleep / time spent in wake: relative to vehicle treated animals, 6 hour recording; for normalized power in the 40-60 Hz range (EEG spectral analysis): wake EEG spectra, shift to higher frequencies
Description: The rat EEG assay was designed to measure electrical signals from the brain as a proxy for in vivo biological activity at the H3 receptor.
Specifically, animals were housed in a temperature-controlled recording room under a 12 hour/12 hour light/dark cycle, with food and water available ad libitum. Eight male Sprague-Dawley rats were implanted with chronic recording devices for continuous recordings of electroencephalograph (EEG) via telemetry (Data Sciences Inc). A repeated measures design was employed in which each rat received eight separate dosings of the compound being tested with a minimum of 3 days between doses. […] EEG data were scored visually in 10 second epochs for wake, REM, and non-REM states. Scored data were analyzed and expressed as time spent in each state per hour. Cumulative time spent in wake, non-REM, and REM states were calculated for the 6 hour recording period. To determine whether any of the pharmacological treatments affected the consolidation of behavioral states, the duration and number of bouts for each state were calculated in hourly bins. A “bout” consisted of a minimum of two consecutive 10-second epochs of a given state and ended with any single state change epoch. The EEG spectra during wake and non-REM sleep were analyzed offline with a fast Fourier transform algorithm (NeuroScore software, Data Sciences Inc) on all epochs without a visually detectable artifact. Wake EEG spectra were analyzed in 1 Hz bins. Data were analyzed using two-way repeated-measures ANOVA.
For both compounds, there was an increase in the time spent in wake, a decrease in the time spent in non-REM sleep, and no change in the time spent in REM sleep relative to vehicle treated animals.

**Q.** Which “number of wake and non-REM sleep bouts” value does the source give for c1cn2cc(-c3ccc4c(c3)nc3n4CCCN(C4CCC4)CC3)ccc2n1 [Compound 59, 3-cyclobutyl-10-(imidazo[1,2-a]pyridin-6-yl)-1,2,3,4,5,6-hexahydrobenzo[4,5]imidazo[1,2-a][1,5]diazocine] here?
**A.** The value was “decrease”.

**Q.** And the wake bout duration?
**A.** Its wake bout duration is “increase”.

**Q.** What about the wake promotion of the same compound?
**A.** Its wake promotion is “wake promoting”.

**Q.** And the “time spent in REM sleep” value?
**A.** Its value is “no change”.

**Q.** And the “time spent in non-REM sleep” value?
**A.** The value was “decrease”.

**Q.** And the “time spent in wake” value?
**A.** Its value is “increase”.

**Q.** And the “normalized power in the 40-60 Hz range (EEG spectral analysis)” value?
**A.** The value was “increase”.

**Q.** c1cn2cc(-c3ccc4c(c3)nc3n4CCN4CCCC[C@@H]4C3)ccc2n1 (single isomer, unassigned) [Compound 48] was tested. Which “number of wake and non-REM sleep bouts” value did it give?
**A.** The value was “decrease”.

**Q.** What about the wake bout duration of the same compound?
**A.** The wake bout duration was “increase”.

**Q.** What about the wake promotion of the same compound?
**A.** Its wake promotion is “wake promoting”.

**Q.** And the “time spent in REM sleep” value?
**A.** The value was “no change”.

**Q.** And the “time spent in non-REM sleep” value?
**A.** The value was “decrease”.

**Q.** What about the “time spent in wake” value of the same compound?
**A.** The value was “increase”.

**Q.** And the “normalized power in the 40-60 Hz range (EEG spectral analysis)” value?
**A.** The value was “increase”.
